Assay results published in patent publication US9695155B2, “Herbicidal substituted pyrimidinyloxy benzene compounds” (E. I. DU PONT DE NEMOURS AND COMPANY, priority 2013, dated 2017).

Key:
giant foxtail [1] = test: Test A preemergence; format: in vivo, Setaria faberii; settings: for Foxtail, Giant plant response rating (0 to 100 scale): 125 g ai/ha
Outline: (§1)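 Pre- and postemergence greenhouse screen. Soil: loam + sand. Spray carrier: solvent mixture, non-phytotoxic, with surfactant. Post timing at 1–2 leaves, height 2–10 cm. Readout: visual injury on a 0–100 scale roughly 10 days after application, untreated plants as reference.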

corn [2] = test: Test A postemergence; format: in vivo, Zea mays
Outline: as §1

barnyardgrass [3] = test: Test A postemergence; format: in vivo, Echinochloa crus-galli
Outline: as §1

pigweed [4] = test: Test A preemergence; format: in vivo, Amaranthus retroflexus; settings: for Pigweed plant response rating (0 to 100 scale): 125 g ai/ha
Outline: as §1

wheat [5] = test: Test A postemergence; format: in vivo, Triticum aestivum
Outline: as §1

ragweed [6] = test: Test A preemergence; format: in vivo, Ambrosia elatior; settings: 1000 g ai/ha, 0 to 100 scale, 0 no effect, 100 complete control, approx. 10 days
Source text: (§2) Seeds of plant species selected from barnyardgrass (Echinochloa crus-galli), kochia (Kochia scoparia), ragweed (common ragweed, Ambrosia elatior), Italian ryegrass (Lolium multiflorum), large (Lg) crabgrass (Digitaria sanguinalis), giant foxtail (Setaria faberii), morningglory (Ipomoea spp.), pigweed (Amaranthus retroflexus), velvetleaf (Abutilon theophrasti), wheat (Triticum aestivum), and corn (Zea mays) were planted into a blend of loam soil and sand and treated preemergence with a directed soil spray using test chemicals formulated in a non-phytotoxic solvent mixture which included a surfactant.
(§3) At the same time, plants selected from these crop and weed species and also blackgrass (Alopecurus myosuroides), and galium (catchweed bedstraw, Galium aparine) were planted in pots containing the same blend of loam soil and sand and treated with postemergence applications of test chemicals formulated in the same manner. Plants ranged in height from 2 to 10 cm and were in the one- to two-leaf stage for the postemergence treatment. Treated plants and untreated controls were maintained in a greenhouse for approximately 10 days, after which time all treated plants were compared to untreated controls and visually evaluated for injury. Plant response ratings, summarized in Table A, are based on a 0 to 100 scale where 0 is no effect and 100 is complete control. A dash (-) response means no test result.

giant foxtail [7] = test: Test A postemergence; format: in vivo, Setaria faberii
Outline: as §1

galium = test: Test A postemergence; format: in vivo, Galium aparine; settings: 1000 g ai/ha, 0 to 100 scale, 0 no effect, 100 complete control
Source text: as §2, §3

pigweed [8] = test: Test A postemergence; format: in vivo, Amaranthus retroflexus
Outline: as §1

Italian ryegrass [9] = test: Test A preemergence; format: in vivo, Lolium multiflorum; settings: 1000 g ai/ha, 0 to 100 scale, 0 no effect, 100 complete control, approx. 10 days
Source text: as §2, §3

kochia [10] = test: Test A preemergence; format: in vivo, Kochia scoparia; settings: 1000 g ai/ha, 0 to 100 scale, 0 no effect, 100 complete control, approx. 10 days
Source text: as §2, §3

barnyardgrass [11] = test: Test A preemergence; format: in vivo, Echinochloa crus-galli; settings: for Barnyardgrass plant response rating (0 to 100 scale, 0 is no effect, 100 is complete control): 125 g ai/ha
Outline: as §1

Italian ryegrass [12] = test: Test A postemergence; format: in vivo, Lolium multiflorum; settings: 1000 g ai/ha, 0 to 100 scale, 0 no effect, 100 complete control
Source text: as §2, §3

ragweed [13] = test: Test A postemergence; format: in vivo, Ambrosia elatior; settings: 1000 g ai/ha, 0 to 100 scale, 0 no effect, 100 complete control
Source text: as §2, §3

blackgrass = test: Test A postemergence; format: in vivo, Alopecurus myosuroides; settings: 1000 g ai/ha, 0 to 100 scale, 0 no effect, 100 complete control
Source text: as §2, §3

kochia [14] = test: Test A postemergence; format: in vivo, Kochia scoparia; settings: 1000 g ai/ha, 0 to 100 scale, 0 no effect, 100 complete control
Source text: as §2, §3

barnyardgrass [15] = test: Test B flooded paddy test; format: in vivo, Echinochloa crus-galli; settings: Flood, 250 g ai/ha; 0 to 100 scale where 0 is no effect and 100 is complete control
Outline: (§4)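 Visual ratings on a 0 to 100 scale, where 100 means complete control, compared treated plants with controls after 13 to 15 days in a greenhouse. Treatment went into paddy water 3 cm deep over the soil, applied to plants at the 2-leaf stage.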

large (Lg) crabgrass [16] = test: Test A preemergence; format: in vivo, Digitaria sanguinalis; settings: for Crabgrass, Large plant response rating (0 to 100 scale): 125 g ai/ha; for Crabgrass, Large plant response rating: 500 g ai/ha, 0 to 100 scale where 0 is no effect and 100 is complete control
Outline: as §1

corn [17] = test: Test A preemergence; format: in vivo, Zea mays; settings: for Corn plant response rating (0 to 100 scale): 125 g ai/ha; for Corn plant response rating: 500 g ai/ha, 0 to 100 scale where 0 is no effect and 100 is complete control
Outline: as §1

sedge, umbrella = test: Test B flooded paddy test; format: in vivo, Cyperus difformis; settings: Flood, 250 g ai/ha; 0 to 100 scale where 0 is no effect and 100 is complete control
Outline: as §4

rice = test: Test B flooded paddy test; format: in vivo, Oryza sativa; settings: Flood, 250 g ai/ha; 0 to 100 scale where 0 is no effect and 100 is complete control
Outline: as §4

morningglory [18] = test: Test A preemergence; format: in vivo, Ipomoea spp.; settings: for Morningglory plant response rating (0 to 100 scale): 125 g ai/ha; for Morningglory plant response rating: 500 g ai/ha, 0 to 100 scale where 0 is no effect and 100 is complete control
Outline: as §1

velvetleaf [19] = test: Test A postemergence; format: in vivo, Abutilon theophrasti
Outline: as §1

wheat [20] = test: Test A preemergence; format: in vivo, Triticum aestivum; settings: for Wheat plant response rating (0 to 100 scale): 125 g ai/ha; for Wheat plant response rating: 500 g ai/ha, 0 to 100 scale where 0 is no effect and 100 is complete control
Outline: as §1

morningglory [21] = test: Test A postemergence; format: in vivo, Ipomoea spp.
Outline: as §1

Heteranthera limosa = test: Test B flooded paddy test; format: in vivo; settings: Flood, 250 g ai/ha; 0 to 100 scale where 0 is no effect and 100 is complete control
Outline: as §4

large (Lg) crabgrass [22] = test: Test A postemergence; format: in vivo, Digitaria sanguinalis
Outline: as §1

velvetleaf [23] = test: Test A preemergence; format: in vivo, Abutilon theophrasti; settings: for Velvetleaf plant response rating (0 to 100 scale): 125 g ai/ha; for Velvetleaf plant response rating: 500 g ai/ha, 0 to 100 scale where 0 is no effect and 100 is complete control
Outline: as §1

[24] = 1000 g ai/ha, 0 to 100 scale, 0 no effect, 100 complete control, approx. 10 days
[25] = 1000 g ai/ha, 0 to 100 scale, 0 no effect, 100 complete control
[26] = 500 g ai/ha, 0 to 100 scale where 0 is no effect and 100 is complete control
[27] = 125 g ai/ha, 0 to 100 scale, 0 no effect, 100 complete control

CNC(=O)c1cccc(Oc2ncc(Cl)cn2)c1-n1cc(C(F)(F)F)cn1 [Compound 256]
Foxtail, Giant plant response rating (giant foxtail [1]; [24]): 30 | Plant response rating, Corn (corn [2]; [25]): 0 | Plant response rating, Barnyardgrass (barnyardgrass [3]; [25]): 10 | Pigweed plant response rating (pigweed [4]; [24]): 30 | Plant response rating, Wheat (wheat [5]; [25]): 0 | Ragweed plant response rating (ragweed [6]): 30 | Plant response rating, Foxtail, Giant (giant foxtail [7]; [25]): 10 | Plant response rating, Galium (galium): 30 | Plant response rating, Pigweed (pigweed [8]; [25]): 10 | Ryegrass, Italian plant response rating (Italian ryegrass [9]): 20 | Kochia plant response rating (kochia [10]): 70 | Barnyardgrass plant response rating (barnyardgrass [11]; [24]): 20 | Plant response rating, Ryegrass, Italian (Italian ryegrass [12]): 0 | Plant response rating, Ragweed (ragweed [13]): 10 | Plant response rating, Blackgrass (blackgrass): 10 | Plant response rating, Kochia (kochia [14]): 30

CCOC(=O)c1cnn(-c2c(C#N)cccc2Oc2ncc(Cl)cn2)c1 [Compound 301]
Plant response rating, Barnyardgrass (barnyardgrass [15]): 0 | Foxtail, Giant plant response rating (0 to 100 scale) (giant foxtail [1]): 0 | Foxtail, Giant plant response rating (giant foxtail [1]; [26]): 0 | Crabgrass, Large plant response rating (0 to 100 scale) (large (Lg) crabgrass [16]): 0 | Crabgrass, Large plant response rating (large (Lg) crabgrass [16]): 0 | Plant response rating, Corn (corn [2]; [27]): 0 | Plant response rating, Corn (corn [2]; [26]): 0 | Corn plant response rating (0 to 100 scale) (corn [17]): 0 | Corn plant response rating (corn [17]): 0 | Plant response rating, Sedge, Umbrella (sedge, umbrella): 0 | Plant response rating, Barnyardgrass (barnyardgrass [3]; [27]): 0 | Plant response rating, Barnyardgrass (barnyardgrass [3]; [26]): 0 | Pigweed plant response rating (0 to 100 scale) (pigweed [4]): 0 | Pigweed plant response rating (pigweed [4]; [26]): 0 | Plant response rating, Wheat (wheat [5]; [27]): 0 | Plant response rating, Wheat (wheat [5]; [26]): 0 | Plant response rating, Rice (rice): 0 | Plant response rating, Foxtail, Giant (giant foxtail [7]; [27]): 0 | Plant response rating, Foxtail, Giant (giant foxtail [7]; [26]): 0 | Morningglory plant response rating (0 to 100 scale) (morningglory [18]): 0 | Morningglory plant response rating (morningglory [18]): 0 | Plant response rating, Velvetleaf (velvetleaf [19]; [27]): 0 | Plant response rating, Velvetleaf (velvetleaf [19]; [26]): 0 | Plant response rating, Pigweed (pigweed [8]; [27]): 0 | Plant response rating, Pigweed (pigweed [8]; [26]): 30 | Wheat plant response rating (0 to 100 scale) (wheat [20]): 0 | Wheat plant response rating (wheat [20]): 0 | Plant response rating, Morningglory (morningglory [21]; [27]): 0 | Plant response rating, Morningglory (morningglory [21]; [26]): 0 | Barnyardgrass plant response rating (0 to 100 scale, 0 is no effect, 100 is complete control) (barnyardgrass [11]): 0 | Barnyardgrass plant response rating (barnyardgrass [11]; [26]): 0 | Plant response rating, Ducksalad (Heteranthera limosa): 0 | Plant response rating, Crabgrass, Large (large (Lg) crabgrass [22]; [27]): 0 | Plant response rating, Crabgrass, Large (large (Lg) crabgrass [22]; [26]): 0 | Velvetleaf plant response rating (0 to 100 scale) (velvetleaf [23]): 0 | Velvetleaf plant response rating (velvetleaf [23]): 0

N#Cc1cccc(Oc2ncc(Cl)cn2)c1-n1cc([N+](=O)[O-])cn1 [Compound 304]
Plant response rating, Barnyardgrass (barnyardgrass [15]): 0 | Foxtail, Giant plant response rating (0 to 100 scale) (giant foxtail [1]): 0 | Foxtail, Giant plant response rating (giant foxtail [1]; [26]): 0 | Crabgrass, Large plant response rating (0 to 100 scale) (large (Lg) crabgrass [16]): 0 | Crabgrass, Large plant response rating (large (Lg) crabgrass [16]): 10 | Plant response rating, Corn (corn [2]; [27]): 0 | Plant response rating, Corn (corn [2]; [26]): 0 | Corn plant response rating (0 to 100 scale) (corn [17]): 0 | Corn plant response rating (corn [17]): 0 | Plant response rating, Sedge, Umbrella (sedge, umbrella): 0 | Plant response rating, Barnyardgrass (barnyardgrass [3]; [27]): 0 | Plant response rating, Barnyardgrass (barnyardgrass [3]; [26]): 0 | Pigweed plant response rating (0 to 100 scale) (pigweed [4]): 0 | Pigweed plant response rating (pigweed [4]; [26]): 0 | Plant response rating, Wheat (wheat [5]; [27]): 0 | Plant response rating, Wheat (wheat [5]; [26]): 0 | Plant response rating, Rice (rice): 0 | Plant response rating, Foxtail, Giant (giant foxtail [7]; [27]): 0 | Plant response rating, Foxtail, Giant (giant foxtail [7]; [26]): 0 | Morningglory plant response rating (0 to 100 scale) (morningglory [18]): 0 | Morningglory plant response rating (morningglory [18]): 0 | Plant response rating, Velvetleaf (velvetleaf [19]; [27]): 0 | Plant response rating, Velvetleaf (velvetleaf [19]; [26]): 0 | Plant response rating, Pigweed (pigweed [8]; [27]): 30 | Plant response rating, Pigweed (pigweed [8]; [26]): 50 | Wheat plant response rating (0 to 100 scale) (wheat [20]): 0 | Wheat plant response rating (wheat [20]): 0 | Plant response rating, Morningglory (morningglory [21]; [27]): 0 | Plant response rating, Morningglory (morningglory [21]; [26]): 0 | Barnyardgrass plant response rating (0 to 100 scale, 0 is no effect, 100 is complete control) (barnyardgrass [11]): 0 | Barnyardgrass plant response rating (barnyardgrass [11]; [26]): 0 | Plant response rating, Ducksalad (Heteranthera limosa): 0 | Plant response rating, Crabgrass, Large (large (Lg) crabgrass [22]; [27]): 0 | Plant response rating, Crabgrass, Large (large (Lg) crabgrass [22]; [26]): 0 | Velvetleaf plant response rating (0 to 100 scale) (velvetleaf [23]): 0 | Velvetleaf plant response rating (velvetleaf [23]): 0
